The assay deals with T1, human subtype 5 somatostatin receptor (Homo sapiens, UniProt P35346).
T1 construct: host or cells: CHO cell line, stably transfected; membranes prepared
T1 sequence (P35346 whole entry): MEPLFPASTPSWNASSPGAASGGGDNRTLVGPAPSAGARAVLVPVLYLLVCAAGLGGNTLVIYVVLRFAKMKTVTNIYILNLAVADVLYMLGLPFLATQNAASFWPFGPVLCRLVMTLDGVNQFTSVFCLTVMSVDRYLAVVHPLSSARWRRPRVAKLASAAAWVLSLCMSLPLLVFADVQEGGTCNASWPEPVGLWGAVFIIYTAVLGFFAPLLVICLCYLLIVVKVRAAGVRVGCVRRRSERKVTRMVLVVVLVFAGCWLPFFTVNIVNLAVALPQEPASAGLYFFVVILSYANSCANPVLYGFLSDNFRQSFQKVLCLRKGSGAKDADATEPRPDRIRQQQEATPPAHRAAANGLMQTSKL
Briefly: SSTR5 radioligand binding assay (125I-labeled 11-Tyr somatostatin-14) on CHO cell membranes. The note with it: Ki calculated from IC50 by Cheng-Prussoff equation. The procedure: A CHO cell line stably transfected with a plasmid encoding the human subtype 5 somatostatin receptor (GenBank accession number D16827) was obtained from Euroscreen. Cells were cultured and used for binding and functional assays.
Membranes of these cells were prepared by sonication in the presence of protease inhibitors and subsequent fractionating centrifugation. The protein concentration in the membrane preparation was determined using a commercial kit (BCA kit, Pierce, USA). Membranes were stored at −80° C. until use. After thawing, membranes were diluted in assay buffer (50 mM Tris-HCl at pH 7.4, 5 mM MgCl2 and 0.20% BSA) and subjected to dounce homogenization.
For binding studies, 0.1 mL membrane suspension, corresponding to app. 6×10^−15 mol receptor, was incubated for 1 h at room temperature with 0.05 nM ^125I-labeled tracer (11-Tyr somatostatin-14, Perkin-Elmer) and either test compounds in varying concentrations or, for the determination of non-specific binding, 0.001 mM non-labeled somatostatin-14. The incubation was stopped by filtration through GF/B glassfiber filters and washing with ice-cold wash buffer (50 mM Tris-HCl at pH 7.4). The bound radioactivity was measured after application of a scintillation cocktail (Microscint 40) and expressed as disintegrations per minute (dpm).
The receptor concentration was determined in a prior saturation experiment where a fixed, arbitrary amount of membranes was incubated with a concentration range of radio-labeled tracer. This allows estimating the total number of specific binding sites per amount of protein (i.e., Bmax), typically between 1 and 5 pmol/mg.
The concentration of the test compound required to result in half maximal inhibition of binding of the radio-labeled tracer (IC50) was estimated from a concentration-versus-dpm graph. The binding affinity (Ki) was calculated from the IC50 by applying the Cheng-Prussoff equation for single binding sites.
Broadly, the Ki is the dissociation constant of the complex between target and ligand, obtained from inhibition or displacement. For the molecule `CCOc1cc(CN2CCC(Nc3nc(Cl)nc4cc(Cl)c(F)cc34)CC2)ccc1OC` [Example 15, (2,7-dichloro-6-fluoro-quinazolin-4-yl)-[1-(3-ethoxy-4-methoxy-benzyl)-piperidin-4-yl]-amine], the inhibition constant Ki was 383 nM.
On to `CCOc1cc(CN2CCC(Nc3ncnc4cc(Cl)ccc34)CC2)ccc1Cl` [Example 23, [1-(4-chloro-3-ethoxy-benzyl)-piperidin-4-yl]-(7-chloro-quinazolin-4-yl)-amine], for which the Ki was 2 nM.
Then `C=CCOc1cc(CN2CCC(Nc3nc(Cl)ncc3OC)CC2)ccc1OC` [Example 147, [1-(3-allyloxy-4-methoxy-benzyl)-piperidin-4-yl]-(2-chloro-5-methoxy-pyrimidin-4-yl)-amine], with 78 nM.

The values are drawn from patent US7968568B2, “Substituted piperidine derivatives as SST5 modulators” (Hoffmann-La Roche Inc., priority 2006, dated 2011).
